Results from patent US20130338032A1, “ASSAY FOR DETERMINING EPIGENETIC PROFILES OF MARKERS OF FRAGILE X ALLELES” (Murdoch Childrens Research Institute, priority 2009, published 2013).

What was measured:
Type in all cases: cell-based, human
[1] = tested on: FMR1 mRNA; test: FMR1 mRNA (real-time PCR) in lymphoblast cell lines treated with 5-aza; conditions: 5-aza 0, 1, 10, 100 μM, 3 days
Experimental: FIG. 1B through J is a graphical representation of the expression of the FMR1 and FRR4 mRNA and FREE1 methylation in lymphoblast cultures with selectively depleted DNMTI. Cell lines from (B, C, D) a HC cell line (30 CGGs), (E, F, G) a PM cell line (103 CGGs) and (H, I, J) a FM cell line from an FXS individual (490 CGGs) were cultured for 3 days in standard RPMI medium/10% v/v fetal bovine serum treated with different doses of 5-aza-deoxycytidine, in triplicate wells, with half of the cells from each well taken for DNA methylation analysis, and the other half for mRNA analyses. FREE1 methylation for each sample was examined from duplicate bisulfite reactions, with single PCR products made from each conversion. The 0.1 methylation output ratio cutoff was not used for this experiment due to an increased number of technical replicates, with values expressed as means of six technical replicates per condition. Methylation and mRNA levels were assessed in the same wells using MALDI-TOF MS and real-time PCR, respectively. The error bars represent standard error (n=3 to 6). […]
(§1) Lymphoblast cell lines were established by Epstein-Barr virus (EBV) transformation from peripheral blood of individuals with: 30, 170 and 490 repeats. […] The cell-viability counts and cell composition were determined by trypan blue exclusion, using a hemocytometer. […]

[2] = tested on: FMR4/ASFMR1 mRNA; test: FMR4/ASFMR1 mRNA (real-time PCR) in lymphoblast cell lines treated with 5-aza
Experimental: (§2) FIG. 1B through J is a graphical representation of the expression of the FMR1 and FRR4 mRNA and FREE1 methylation in lymphoblast cultures with selectively depleted DNMTI. Cell lines from (B, C, D) a HC cell line (30 CGGs), (E, F, G) a PM cell line (103 CGGs) and (H, I, J) a FM cell line from an FXS individual (490 CGGs) were cultured for 3 days in standard RPMI medium/10% v/v fetal bovine serum treated with different doses of 5-aza-deoxycytidine, in triplicate wells, with half of the cells from each well taken for DNA methylation analysis, and the other half for mRNA analyses. FREE1 methylation for each sample was examined from duplicate bisulfite reactions, with single PCR products made from each conversion. The 0.1 methylation output ratio cutoff was not used for this experiment due to an increased number of technical replicates, with values expressed as means of six technical replicates per condition. Methylation and mRNA levels were assessed in the same wells using MALDI-TOF MS and real-time PCR, respectively. The error bars represent standard error (n=3 to 6). All conditions were compared to 0 μM 5-aza control: ***-p<0.001; **-p<0.05.
as §1
Total RNA was extracted and purified using the Rneasy extraction kit, as per manufacturer's instructions (Qiagen Inc., Hilden, Germany). RNA concentrations were measured in triplicate using a NanoDrop ND-1000 Spectrophotometer, with purity being determined by the A260/A280 ratio using the expected values between 1.8 and 2. Total RNA quality and the degree of DNA contamination was also assessed using capillary electrophoresis Standard Sens Kit (Bio-rad), which involved descriptive comparison of chromatographic features based on previous publications using this system (Fleige and Pfaffl, Mol Aspects Med 27(2-3):126-139, 2006). […]

[3] = tested on: FREE1; test: FREE1 methylation (MALDI-TOF MS) in lymphoblast cell lines treated with 5-aza
Experimental: as §2
Lymphoblast cell lines were established by Epstein-Barr virus (EBV) transformation from peripheral blood of individuals with: 30, 170 and 490 repeats. The cell lines were treated with 5 aza based on a previously described protocol (Pietrobono et al, 2002, supra). Briefly, A 10 mM stock solution of 5-aza (Sigma-Aldrich) was initially prepared in sterile water. The cell-viability counts and cell composition were determined by trypan blue exclusion, using a hemocytometer. Cells were then resuspended at a density of […] in RPMI medium (Sigma St Luis, Mo., USA)/10% v/v Fetal bovine serum (CSL) at 37° C., 5% v/v CO2, supplemented with of 5-aza stock and thoroughly resuspended. The cells were cultured in triplicate wells for each of the four final 5-Aza concentrations of: 0, 1, 10 and 100 μM. […]

[4] = GZ and PM cell lines, 5-aza 0, 1, 10, 100 μM, 3 days
[5] = cell lines for FM carriers affected with FXS, 5-aza 0, 1, 10, 100 μM, 3 days
[6] = cell lines from carriers of CGG alleles ranging from normal size to FM, 5-Aza treatment

Nc1ncn([C@H]2C[C@H](O)[C@@H](CO)O2)c(=O)n1 [5-aza, 5-aza-2′-deoxycytidine]
FMR1 mRNA levels ([1]; GZ and PM cell lines): increase | mRNA levels of FMR1 ([1]; cell lines for FM carriers affected with FXS): increase in mRNA levels | ASFMR1/FMR4 mRNA levels [2, 4]: increase | mRNA levels of ASFMR1/FMR4 [2, 5]: increase in mRNA levels | FMR4/ASFMR1 transcription within the FREE1 [2, 6]: increase FMR4/ASFMR1 transcription | FREE1 methylation [3, 4]: further demethylation of FREE1 | FREE1 methylation [3, 5]: demethylation of FREE1 | FREE1 methylation [3, 6]: de-methylation of the FREE1
